Measurements taken from US7157449B2, “Medicament for the treatment of diseases caused by parasitic protozoa” (priority 2000, dated 2007).
“Also recorded” adds a separate entry of the source.

Columns and labels:
T. brucei [1] = experiment: Effect of drugs on trypanosome proliferation; type: cell-based; conditions: for effect on trypanosome proliferation: DON 1, 5 μM, acivicin 1, 5, 25 μM, CPEC 250 μM, azaserine data not shown; for rescue of trypanosomes from the proliferation block asserted by DON: cytidine up to 5 mM or cytosine 1 mM
Method: In A), the trypanosomes were treated with no drug (squares), 1 μM DON (triangles) or 5 μM DON (diamonds). In (B), the trypanosomes were treated with no drug (filled squares), 1 μM acivicin (triangles), 5 μM acivicin (diamonds) or 25 μM acivicin (open squares). The number of trypanosomes was counted at various time-points after the drug exposure had started. It appears that DON and acivicin were both very active.
The trypanosomes were treated with DON for 1 h and then harvested and resuspended in drug-free medium. The number of trypanosomes was counted at various time-points after the release had started (triangles). A control experiment was performed where the trypanosomes were not exposed to DON but otherwise were treated exactly the same way as the drug-treated trypanosomes (squares). Each point is an average of two experiments with the standard deviation indicated by error bars.
(§1) Procyclic insect forms of T. brucei brucei AnTat 1.1 were cultured in SDM-79 medium (Brun, R. and Schoenenberger, M. (1979) Acta Trop. 36, 289–292) supplemented with 10% heat-inactivated fetal bovine serum at 27° C. Culture-adapted bloodstream forms of the T. brucei brucei cell line TC221 (Hirumi, H., Hirumi, K., Doyle, J. J. and Cross, G. A. M. (1980) Parasitology 80, 371–382) were propagated in Hirumi's modified Iscove's medium-9 (Hirumi, H. and Hirumi, K. (1989) J. Parasitology 75, 985–989) supplemented with 5% fetal bovine serum at 37° C. in a humidified atmosphere containing 7% CO2. The cultured parasites were harvested in the late logarithmic growth phase.
(§2) 6-diazo-5-oxo-L-norleucine (DON), acivicin and azaserine were bought from Sigma. They were dissolved in water and stored as 5 mM solutions at −20° C. Cyclopentenyl cytosine was a kind gift from Grant McClarty at the Dept. of Medical Microbiology, University of Manitoba, 730 William Ave, Winnipeg, Manitoba R3E OW3, Canada. It was stored as a 50 mM solution in dimethyl sulfoxide (DMSO) at 4° C. The final concentration of DMSO in the growth media of the trypanosomes never became more than 0.5% and that had no effect on the NTP pools or the proliferation of the parasites.
DON is not stable in the bloodstream and has a half-life of only a few hours in humans (Kovach, J. S., Eagan, R. T., Pawis, G., Rubin, J., Creagan, E. T. and Moertel. C. G. (1981) Cancer Treat. Rep. 65, 1031–1036; Rahman, A., Luc, V., Smith, F. P., Vrown, J., Schein, P. S. and Woolley, P. V. (1981); and Sullivan, M. P., Nelson, J. A., Feldman, S. and Nguyen, B. V. (1988) Cancer Chemother. Pharmac. 21, 78–84). Therefore, it was tested for how long the effect of a short pulse of DON lasts on trypanosome proliferation. In FIG. 5, the trypanosomes have been treated with 5 μM DON for 1 h. After the incubation, the trypanosomes were collected by centrifugation, the pellet was washed with media not containing DON and resuspended in the same media and the trypanosomes were put back into the incubator. The amount of trypanosomes was continuously recorded during the incubation. Control trypanosomes were treated the same way except that the one-hour incubation was without DON.

T. brucei [2] = experiment: NTP (CTP) pools in trypanosomes after treatment with CTP synthetase inhibitors; type: cell-based; conditions: for size of the CTP pool after addition of cytidine or cytosine: up to 15 mM cytidine or 1 mM cytosine, harvested one hour later; for effect on the CTP pool: 1 h incubation, 25 and 100 μM DON, 100 μM acivicin, 25 μM CPEC
Method: Samples without drug (control), with 25 and 100 μM DON (DON25 and DON100, respectively), with 100 μM acivicin (Aci100) and with 25 μM CPEC (CPEC25) are shown. The unit of the ordinata is the same as in FIG. 1. The control is an average of two experiments while the others are single measurements.
as §1
1–3×10^8 trypanosomes were collected and subsequently disintegrated by 500 μl ice-cold 0,6 M trichloroacetic acid supplemented with 15 mM MgCl2. The trichloroacetic acid was removed by two extractions with 720 μl 1,1,2-trichlorotrifluoroethan (78%)/trioctylamine (22%) and the aqueous phase was saved. ⅕ of the sample was evaporated to dryness in a Speedvac (Savant), loaded onto a 4.6×125 mm Partisphere SAX-column and run by HPLC in 0,5 M ammonium phosphate pH 3,4 containing 2,5% acetonitrile at 1.5 ml/min. The procedure is further explained in previous work by the present inventors, see Hofer, A., Ekanem, J. T. and Thelander, L. (1998) J. Biol. Chem. 273, 34098–34104. A connection of the HPLC to a Flow Scintillation Analyzer (Radiomatic 150 TR, Packard) made it possible to check the radioactivity in the chromatographic peaks. For radioactivity measurements, the whole sample was usually loaded onto the column. The nucleotides were quantified by measuring the peak heights and comparing them to a standard curve.
as §2
The absolute dependence on de novo synthesis for CTP production might be exploited for chemotherapy purposes since the host can be rescued by cytidine. There are two major classes of compounds that inhibit CTP synthetase, nucleoside analogues and glutamine analogues. One nucleoside analogue, cyclopentenyl cytosine (CPEC), and two glutamine analogues, 6-diazo-5-oxo-L-norleucin (DON) and acivicin, were tested and it was observed how the CTP pool changed during the one-hour incubation period (FIG. 3). […] Next, the effect of the drugs on trypanosome growth was investigated. […] As expected. CPEC (250 μM) had no effect in this experiment either (data not shown).

mouse BALB/c fibroblasts = experiment: Proliferation of BALB/c fibroblasts with DON with or without hypoxanthine; type: cell-based
Method: The fibroblasts were seeded at a density so low that they could not get confluent within three days. […] At this point the amount of cells was indirectly counted by a method described in the section “Material and methods” below.
Mouse Balb/c fibroblasts were cultivated as monolayers in Dulbecco's Modified Eagles Medium (Sigma) supplemented with L-glutamine (0.584 g/l) and 10% heat-inactivated horse serum at 37° C. in a humidified atmosphere containing 7% CO2. The amount of fibroblasts on each plate was determined by a method were the cell-containing plates were washed with PBS pH 7.5, the cells disintegrated by a 10 min. incubation with 0.2 M NaOH at 50° C. and then the OD260-310 was measured (Suttle, D. P. and Stark, G. R. (1979) J. Biol. Chem. 254, 4602–4607). The cells were collected before confluence.
The effect of DON on trypanosomes and mammalian cells was compared as follows. […] Thus, it needed to be investigated whether or not the anti-proliferation effect on mammalian cells could be abolished, while still keeping the trypanocidal activity. In mammalian cells, DON is a powerful inhibitor of de novo purine biosynthesis. In FIG. 6, two experiments are included wherein the block on de novo purine biosynthesis have been by-passed by 10 and 160 μM hypoxanthine, respectively. Hypoxanthine is a naturally occurring purine base in the bloodstream of mammals.

Plasmodium falciparum = experiment: IC50 against parasite (Swiss Tropical Institute standard method); type: cell-based
Excerpt: (§3) In order to determine in what range DON is effective against Plasmodium falciparum, the cause of malaria, Swiss Tropical Institute (Socinstrasse 57, P.O. Box, CH, 4002 Basel, Switzerland) performed the present experiment according to their standard methods available as a commercial service provided under secrecy (for an exact disclosure of the method, reference is made to Swiss Tropical Institute). Further, the present experiment enables a comparison between the effect of DON on both Trypanosoma brucei rhodiense and Plasmodium falciparum.

[3] = test system: Trypanosoma brucei rhodiense; experiment: as above; type: cell-based
Excerpt: as §3

[4] = human bloodstream; cited from earlier work
[5] = in vivo; cited from earlier work

SMILES: [N-]=[N+]=CC(=O)OC[C@H](N)C(=O)O [Azaserine, azaserine]
- effect on trypanosome proliferation (T. brucei [1]): had no effect

SMILES: Nc1ccn([C@@H]2O[C@H](CO)[C@@H](O)[C@H]2O)c(=O)n1 [Cytidine, cytidine]
- rescue of trypanosomes from the proliferation block asserted by DON (T. brucei [1]): could not rescue
- size of the CTP pool after addition of cytidine or cytosine (T. brucei [2]): no change
- effect on the DON concentration needed for a proliferation block (mouse BALB/c fibroblasts; cytidine added instead of hypoxanthine): had no such effect

SMILES: [N-]=[N+]=CC(=O)CC[C@H](N)C(=O)O [DON, 6-diazo-5-oxo-L-norleucine]
- IC50 (Plasmodium falciparum; KI isolate): 520 nM
- IC50 (Plasmodium falciparum; NF54 isolate): 360 nM
- IC50 [3]: 430 nM
- effect on trypanosome proliferation (T. brucei [1]): very active
- concentration that completely blocked trypanosome proliferation (T. brucei [1]; cultured trypanosomes, 160 μM hypoxanthine in medium): 1 µM
- effect on the CTP pool (T. brucei [2]): selectively lowered the CTP level; also recorded: lowered the CTP pool
- effect on the UTP, ATP or GTP (purine NTP) levels (T. brucei [2]; DON-treated T. brucei): without affecting the UTP, ATP or GTP levels; also recorded: did not alter the purine NTP pools
- DON concentration needed to inhibit proliferation relative to without hypoxanthine (mouse BALB/c fibroblasts; in the presence of 160 μM hypoxanthine): around 20 times
- antiproliferative effect of DON (mouse BALB/c fibroblasts; with 10 μM hypoxanthine (consumed during the experiment)): still high
- DON concentration needed for a proliferation block (mouse BALB/c fibroblasts; with addition of hypoxanthine): more than 20 μM
- DON concentration for maximal inhibition / total block of proliferation (mouse BALB/c fibroblasts; without purines (hypoxanthine) in the culture medium, 72 h): 1 to 2 µM
- half-life [4]: a few hours

SMILES: O=c1[nH]cnc2nc[nH]c12 [Hypoxanthine, hypoxanthine]
- crossing of the blood-brain barrier [5]: known to cross the blood-brain barrier

SMILES: N[C@H](C(=O)O)[C@@H]1CC(Cl)=NO1 [acivicin]
- effect on trypanosome proliferation (T. brucei [1]): very active
- GTP pool reduced by (T. brucei [2]; 1 h incubation with acivicin, not shown in the figure): 50%
- effect on the CTP pool (T. brucei [2]): lowered the CTP pool

SMILES: Nc1cc[nH]c(=O)n1 [cytosine]
- rescue of trypanosomes from the proliferation block asserted by DON (T. brucei [1]): could not rescue
- size of the CTP pool after addition of cytidine or cytosine (T. brucei [2]): no change
